From US11524966B1 (Valo Early Discovery, Inc., priority 2017, dated 2022)

These compounds were tested against T1, USP25 (USP25-His6, Boston Biochem E-546) (Homo sapiens, UniProt Q9UHP3) (assay: Ubiquitin-Rhodamine 110 Assay for USP25 Activity, Example A-2). Conditions: Ubiquitin-Rhodamine 110 assay, Example A-2; read-out: USP25 A-2 IC50 range.
T1 construct: His6; purchased Boston Biochem E-546
T1 sequence (Q9UHP3 1-1055): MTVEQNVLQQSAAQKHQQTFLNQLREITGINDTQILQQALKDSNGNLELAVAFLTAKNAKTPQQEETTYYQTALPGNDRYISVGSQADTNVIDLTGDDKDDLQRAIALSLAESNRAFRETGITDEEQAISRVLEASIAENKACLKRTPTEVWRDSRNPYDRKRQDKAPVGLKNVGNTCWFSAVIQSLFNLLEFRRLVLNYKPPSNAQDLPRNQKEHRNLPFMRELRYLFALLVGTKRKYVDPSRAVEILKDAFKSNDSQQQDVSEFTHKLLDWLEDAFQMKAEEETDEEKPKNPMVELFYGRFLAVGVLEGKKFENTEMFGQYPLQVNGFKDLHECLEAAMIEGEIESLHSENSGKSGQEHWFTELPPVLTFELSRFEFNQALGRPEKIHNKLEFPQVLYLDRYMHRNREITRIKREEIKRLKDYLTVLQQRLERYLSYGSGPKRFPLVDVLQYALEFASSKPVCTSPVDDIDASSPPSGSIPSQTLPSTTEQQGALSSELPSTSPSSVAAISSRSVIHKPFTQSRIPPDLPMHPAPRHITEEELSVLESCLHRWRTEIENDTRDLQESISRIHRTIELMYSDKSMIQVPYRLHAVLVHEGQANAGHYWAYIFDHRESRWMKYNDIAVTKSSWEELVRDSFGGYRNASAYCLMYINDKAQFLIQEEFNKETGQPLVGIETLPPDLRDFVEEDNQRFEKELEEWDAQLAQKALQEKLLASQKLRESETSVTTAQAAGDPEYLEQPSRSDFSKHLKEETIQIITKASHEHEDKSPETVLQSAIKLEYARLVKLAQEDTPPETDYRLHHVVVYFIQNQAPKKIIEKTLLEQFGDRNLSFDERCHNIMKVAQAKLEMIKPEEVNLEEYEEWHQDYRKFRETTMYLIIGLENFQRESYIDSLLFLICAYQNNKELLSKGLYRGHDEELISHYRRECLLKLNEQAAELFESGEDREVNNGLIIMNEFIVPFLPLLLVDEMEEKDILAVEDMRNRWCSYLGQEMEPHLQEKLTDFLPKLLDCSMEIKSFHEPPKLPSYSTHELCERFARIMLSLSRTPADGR
Format: biochemical
Procedure, shortened: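 75 pM USP25-His6 was preincubated 30 min with compound (10-point 3-fold series, 25 μM–1.3 nM) in pH 8.0 Tris buffer with BME, BGG and Triton X-100. Then 25 nM Ub-Rh110 (<<Km) was added for 45 min at room temperature, stopped with citric acid, fluorescence read at 485/535 nm, IC50 by 4-parameter fit.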

Row | Compound | IC50 [nM]
1 | O=C(N[C@H]1COc2cc(N3CCNCC3)ccc2C1)c1cnn2ccccc12 [Example 460, (R)-N-(7-(piperazin-1-yl)chroman-3-yl)pyrazolo[1,5-a]pyridine-3-carboxamide] | > 2000
2 | COc1ccn2ncc(C(=O)N[C@H]3COc4cc(N5CCNCC5)ccc4C3)c2c1 [Example 461, (R)-5-methoxy-N-(7-(piperazin-1-yl)chroman-3-yl)pyrazolo[1,5-a]pyridine-3-carboxamide] | > 2000
3 | O=C(N[C@H]1COc2cc(N3CCNCC3)ccc2C1)c1cnn2cc(Cl)ccc12 [Example 462, (R)-6-chloro-N-(7-(piperazin-1-yl)chroman-3-yl)pyrazolo[1,5-a]pyridine-3-carboxamide] | > 2000
4 | Cc1cc(C)n2ncc(C(=O)N[C@H]3COc4cc(N5CCNCC5)ccc4C3)c2n1 [Example 463, (R)-5,7-dimethyl-N-(7-(piperazin-1-yl)chroman-3-yl)pyrazolo[1,5-a]pyrimidine-3-carboxamide] | > 2000
5 | O=C(N[C@H]1COc2cc(N3CCNCC3)ccc2C1)c1cn2nc(Cl)ccc2n1 [Example 464, (R)-6-chloro-N-(7-(piperazin-1-yl)chroman-3-yl)imidazo[1,2-b]pyridazine-2-carboxamide] | > 2000
6 | Cc1ccn2ncc(C(=O)N[C@H]3COc4cc(N5CCNCC5)ccc4C3)c2c1 [Example 465, (R)-5-methyl-N-(7-(piperazin-1-yl)chroman-3-yl)pyrazolo[1,5-a]pyridine-3-carboxamide] | > 2000
7 | O=C(N[C@H]1COc2cc(N3CCNCC3)ccc2C1)c1cnn2cccnc12 [Example 466, (R)-N-(7-(piperazin-1-yl)chroman-3-yl)pyrazolo[1,5-a]pyrimidine-3-carboxamide] | > 2000
8 | O=C(N[C@H]1COc2cc(N3CCNCC3)ccc2C1)c1ccc(NCc2cccnc2)nc1 [Example 468, (R)-N-(7-(piperazin-1-yl)chroman-3-yl)-6-((pyridin-3-ylmethyl)amino)nicotinamide] | > 2000
9 | O=C(N[C@H]1COc2cc(N3CCNCC3)ccc2C1)c1ccc(NCc2cccc(C(F)(F)F)c2)nc1 [Example 469, (R)-N-(7-(piperazin-1-yl)chroman-3-yl)-6-((3-(trifluoromethyl)benzyl)amino)nicotinamide] | 50 to 200
10 | O=C(N[C@H]1COc2cc(N3CCNCC3)ccc2C1)c1ccc(NCc2ccccn2)nc1 [Example 470, (R)-N-(7-(piperazin-1-yl)chroman-3-yl)-6-((pyridin-2-ylmethyl)amino)nicotinamide] | > 2000
11 | O=C(N[C@H]1COc2cc(N3CCNCC3)ccc2C1)c1ccc(NCc2ccc3c(c2)OCCO3)nc1 [Example 471, (R)-6-(((2,3-dihydrobenzo[b][1,4]dioxin-6-yl)methyl)amino)-N-(7-(piperazin-1-yl)chroman-3-yl)nicotinamide] | 200 to 2000
12 | O=C(N[C@H]1COc2cc(N3CCNCC3)ccc2C1)c1ccc(NCc2ccc3c(c2)CCO3)nc1 [Example 472, (R)-6-(((2,3-dihydrobenzofuran-5-yl)methyl)amino)-N-(7-(piperazin-1-yl)chroman-3-yl)nicotinamide] | 200 to 2000
13 | CC(=O)Nc1cccc(CNc2ccc(C(=O)N[C@H]3COc4cc(N5CCNCC5)ccc4C3)cn2)c1 [Example 473, (R)-6-((3-acetamidobenzyl)amino)-N-(7-(piperazin-1-yl)chroman-3-yl)nicotinamide] | > 2000
14 | CCc1cccc2c(C(=O)N[C@H]3COc4cc(N5CCNCC5)ccc4C3)cnn12 [Example 474, 7-ethyl-N-[(3R)-7-(piperazin-1-yl)-3,4-dihydro-2H-1-benzopyran-3-yl]pyrazolo[1,5-a]pyridine-3-carboxamide] | 200 to 2000
15 | O=C(N[C@H]1COc2cc(N3CCNCC3)ccc2C1)c1cnn2c(CO)cccc12 [Example 475, 7-(hydroxymethyl)-N-[(3R)-7-(piperazin-1-yl)-3,4-dihydro-2H-1-benzopyran-3-yl]pyrazolo[1,5-a]pyridine-3-carboxamide] | > 2000
